In patent US12611475B2, “System for implantation by sterilisation techniques” (Universidade de Santiago de Compostela, priority 2020, dated 2026):
Structures can show the parent of a compound that is named as a salt.

How the values were obtained:
[1] = tested on: Bacillus pumilus spores (ATCC 27142); conditions: 150 ppm H2O2, CO2 39° C., 100 bar, continuous flow 10 g/min, 15 minutes; 10^6 spores
Description: Mask cutouts (4 cm 2) were inoculated with 10^6 spores contained in 100 μL of aqueous solution. The samples were placed inside sterilization bags and heat-sealed to be placed in a 600 mL stainless steel autoclave (Novagenesis, Novasterilis Inc.) provided with lower mechanical agitation. H2O2 was added as an additive at the bottom of the autoclave to avoid direct contact with the masks at a content of 150 ppm. The system is heated to 39° C. and pressurized with a CO2 flow to reach 100 bar. A continuous flow of CO2 of 0 to 10 g/min through the autoclave was maintained for a period of 15 minutes. Subsequently, the system is depressurized to reach atmospheric pressure at a rate of 14.3 bar/min.
The effectiveness of the sterilization method was evaluated by sowing tryptone-soybean agar culture medium and subsequent counting of formed colonies.

[2] = X-ray diffraction and infrared spectrum after treatment; format: physicochemical; conditions: 1200 ppm hydrogen peroxide, supercritical CO2 39° C., 140 bar, 2.5 and 2.5 hours; versus untreated
Description: FIG. 4. X-ray diffraction spectrum (A) and infrared spectrum (B) of vancomycin hydrochloride i) untreated and (ii) after addition of 1200 ppm hydrogen peroxide and processing with supercritical CO2 at 39° C., 140 bar during batch stages and continuous compressed CO2 flux for 2.5 and 2.5 hours, respectively. Caption: vancomycin untreated hydrochloride (black), vancomycin treated hydrochloride (gray)

Row | Structure (SMILES) | sterility level reached on FFP3 mask cutouts [1] | crystalline form after treatment [2]
1 | OO [Test H2O2, hydrogen peroxide] | SAL-6 | 
2 | CN[C@H](CC(C)C)C(=O)N[C@H]1C(=O)N[C@@H](CC(N)=O)C(=O)N[C@H]2C(=O)N[C@H]3C(=O)N[C@H](C(=O)N[C@H](C(=O)O)c4cc(O)cc(O)c4-c4cc3ccc4O)[C@H](O)c3ccc(c(Cl)c3)Oc3cc2cc(c3O[C@@H]2O[C@H](CO)[C@@H](O)[C@H](O)[C@H]2O[C@H]2C[C@](C)(N)[C@H](O)[C@H](C)O2)Oc2ccc(cc2Cl)[C@H]1O [Vancomycin hydrochloride, vancomycin hydrochloride] |  | not altered
